Assay results reported in paper PMC11083769, “Characterization and pharmacokinetics of cinnamon and star anise compound essential oil pellets prepared via centrifugal granulation technology” (BMC Veterinary Research, 2024).
Converted amounts (≈) assume the structure as drawn. Marks after values point to notes of the source that are not given here.

How the values were obtained:
[1] = Pharmacokinetics of compound essential oil pellets in pig model; type: in vivo; settings: single dose, n = 6
Description: Six healthy Landrace × Large White hybrid pigs were randomly divided into three groups for pharmacokinetic experiments and were purchased from JuCong Agriculture, Nanning, Guangxi. During the adaptation period, the temperature of the breeding environment was 18–25℃, the relative humidity was 50–65%, and commercial feed and water free of antibiotics and target drugs were freely available to the pigs housed individually in six pig pens. After the experiment, the pigs were released.
After one week in the experimental setting, the pigs were labelled with numbers 1–6, randomly divided into 3 groups, and weighed before the experiment. […] Compound essential oil pellets were orally administered at three different doses of 50, 100 and 200 mg/kg. Three cycles of crossover trials were performed with 6 pigs, with each cycle separated by 7 days. 5 mL of blood was collected from the anterior vena cava at different time points after administration, centrifuged at 3000 r/min for 10 min, after which the plasma was separated. The drug concentration in the plasma was detected by GC‒MS/MS after pretreatment.
The average drug-time curve of each group was drawn. WinNonlin version 5.2.1 was used to calculate the pharmacokinetic parameters.
The compound essential oil pellet concentration was measured using GC‒MS/MS. The chromatographic conditions were as follows. A PEG-20 M column (30 m × 0.32 mm, 0.25 μm) was used. The temperature was increased from 90 ℃ to 160 ℃ at a heating rate of 10 ℃/min, held for 5 min, further increased from 160 ℃ to 280 ℃ at a heating rate of 20 ℃/min and held for 2 min.

[2] = tested on: Staphylococcus aureus Newman strain; parameters: method as in PMID 32185411; settings: cited from earlier work
[3] = oral compound essential oil pellets 50 mg/kg
[4] = oral compound essential oil pellets 100 mg/kg
[5] = oral compound essential oil pellets 200 mg/kg

## O=C/C=C/c1ccccc1 [cinnamaldehyde, Cinnamaldehyde]
[1]; [3]
  AUC0−∞ of plasma cinnamaldehyde: 1433.11 ± 21.30^a h·µg/L
  CL of plasma cinnamaldehyde: 18.69 ± 1.81^ac L/h/kg
  Cmax of plasma cinnamaldehyde: 58.81 ± 6.16^a µg/L
  MRT0−∞ of plasma cinnamaldehyde: 20.96 ± 0.21^a h
  T1/2 of plasma cinnamaldehyde: 14.52 ± 0.14^a h
  Tmax of plasma cinnamaldehyde: 2.00 h
  Vz of plasma cinnamaldehyde: 1205.24 ± 149.37^ab L/kg
[1]; [4]
  AUC0−∞ of plasma cinnamaldehyde: 467.05 ± 141.28^d h·µg/L
  CL of plasma cinnamaldehyde: 142.48 ± 40.58^d L/h/kg
  Cmax of plasma cinnamaldehyde: 37.57 ± 5.56^d µg/L
  MRT0−∞ of plasma cinnamaldehyde: 17.62 ± 1.84^d h
  T1/2 of plasma cinnamaldehyde: 12.21 ± 1.27^d h
  Tmax of plasma cinnamaldehyde: 2.00 h
  Vz of plasma cinnamaldehyde: 7671.46 ± 1809.86^d L/kg
[1]; [5]
  AUC0−∞ of plasma cinnamaldehyde: 1653.25 ± 295.40 µg·h/L
  CL of plasma cinnamaldehyde: 56.85 ± 15.32 L/h/kg
  Cmax of plasma cinnamaldehyde: 64.18 ± 2.33 µg/L
  MRT0−∞ of plasma cinnamaldehyde: 20.68 ± 0.61 h
  T1/2 of plasma cinnamaldehyde: 14.33 ± 0.42 h
  Tmax of plasma cinnamaldehyde: 2.00 h
  Vz of plasma cinnamaldehyde: 4593.67 ± 625.29 L/kg

## C/C=C/c1ccc(OC)cc1 [trans-anethole, Trans-anethole]
[2]
  MIC: 49.4 mg/mL (≈ 333 mM)
